# Entries after “also recorded” stand apart in the source; their conditions may differ.
# Legend:
# [1] = test system: P. falciparum ART-resistant strain F32-ART5; test: Standard in vitro chemo-sensitivity assay, F32-ART5; type: cell-based; conditions: Plasmodium falciparum, F32, 48 h, read-out: Mean ± SEM EC50 values F32-ART5
# Experimental: The Plasmodium falciparum ART-resistant strain F32-ART5 and its tween ART-sensitive strain F32-TEM [33, 41] were cultivated at 37 °C with 5% CO2 in human red blood cells (EFS, French Blood Bank) diluted to 2% hematocrit in RPMI-1640 medium (Biowest, Nuaillé, France) supplemented with 5% human serum (EFS, French Blood Bank), as previously reported.
# The chemosensitivity assay was carried out in 96-well culture plates on synchronized ring-stage parasites at 1% parasitemia obtained after D-sorbitol treatment. The antiplasmodial activities were evaluated using the SYBR Green I method. Parasites were exposed for 48 h to a range of concentrations of the different tested compounds. Each drug concentration was tested in triplicates. Parasite pellets were then washed in 1× PBS prior to lysing red blood cells at −20 °C overnight. Then, the plates were thawed and 100 µL of each well were transferred into a black 96-well plate. Next, 100 µL per well of SYBR Green I (Thermo Fisher) diluted at a final concentration of 2× in lysis buffer (20 mM Tris base pH 7.5, 5 mM EDTA, 0.008% w/v saponin, 0.08% w/v Triton X-100) were added and left to incubate for 1 h at room temperature prior to reading the plates on BioTek FLx800 Microplate Fluorescence Reader (λexcitation = 485 nm, λemission = 528 nm). Relative EC50 values were determined using GraphPad Prism software.
# [2] = test system: S. typhimurium strains (TA97a, TA98, TA100, TA102); test: Ames test; type: cell-based, Salmonella typhimurium; conditions: 48 h; 5 mM and 25 mM, w/o and w/ S9 mix; four S. typhimurium strains
# Experimental: Nevertheless, the evaluation of the mutagenicity of compound (3i) was carried out using the Ames test on four S. typhimurium strains at 5 mM and 25 mM (four doses per concentrations: 2, 3, 4, 5 µL/plate for assay without S9 mix and 4, 6, 8, 10 µL/plate for assay with S9 mix).
# Compounds were assessed for mutagenicity by a modified version of the liquid incubation assay of the classical Ames test at five concentrations (25–125 nM). Salmonella tester strains (TA97a: Acridine ICR191, TA98: 2,4,7 trinitrofluorenone, TA100: Sodium Azide and TA102: Mitomycine C) as positive control w/o S9 mix and benzo[alpha]pyrene as positive control w/S9 mix) were grown overnight in a nutrient broth n_2 (Oxoid, Dardilly, France). After this period, products dissolved in DMSO (Sigma) were added to 0.1 mL of culture and incubated for 1 h at 37 °C with shaking. Each sample was assayed in duplicate. After incubation, 2 mL of molten top agar were mixed gently with the pre-incubated solution and poured onto Vogel–Bonner minimal agar plates. After 48 h at 37 °C, the number of spontaneous and drug-induced revertants per plate was determined for each dose with a laser bacterial colony counter (laser bacterial colony counter 500A, Interscience). A product was considered mutagenic when it induced a two-fold increase in the number of revertants, compared with the spontaneous frequency (negative control). […]
# [3] = test system: K1 chloroquine and pyrimethamine-resistant P. falciparum strain; test: In vitro antiplasmodial evaluation (SYBR Green I); type: cell-based, Plasmodium falciparum
smiles,measurement,setting,value
"O=[N+]([O-])c1ccc(Oc2nc3ccccc3nc2C(Cl)(Cl)Cl)cc1 [3i, 2-(4-Nitrophenoxy)-3-trichloromethylquinoxaline]",EC50,[1],400 ± 105 nM
same,Ames test result (mutagenicity),[2],not genotoxic; also recorded: not mutagenic in vitro; also recorded: negative
same,EC50,"[3]; Plasmodium falciparum, K1, 72 h, K1 strain, 72 h incubation, three independent experiments, read-out: EC50 PfK1 (µM) ± SD",0.2 ± 0.04 µM
same,SI (selectivity index),[3]; SI = CC50 HepG2/EC50 PfK1,160.0

# Reference: paper PMC8400257, “2-Phenoxy-3-Trichloromethylquinoxalines Are Antiplasmodial Derivatives with Activity against the Apicoplast of Plasmodium falciparum” (Pharmaceuticals, 2021)
